From US20190256822A1, “HEPATIC CELL LINE RESISTANT TO DIMETHYL SULFOXIDE, CELL CULTURE AND USES THEREOF” (Academisch Medisch Centrum, priority 2016, published 2019)

What was measured:
CAR target gene CYP2B6 = experiment: CYP induction: CYP2B6 transcript levels after CITCO (CAR inducer); assay type: cell-based, human
[1] = tested on: HepaRG+/-CAR monolayer cultures
Experimental: At the 0 h time point the cells were incubated for 5 s to correct for non-specific binding of the added compounds to the cells and the culture plate. Medium samples of the indicated time points were immediately frozen at −80° C. Prior to HPLC analysis samples were thawed on ice and deproteinized with the addition of 4 volumes of acetonitrile (for prednisolone and theophylline), vacuum evaporated and dissolved in water. Warfarin samples were instead deproteinized with 2 volumes of methanol and spun down for 5 minutes at 20000 g at 4° C. Supernatants were used for HPLC analysis.
Reverse-phase HPLC detection was done as follows. Deproteinized samples (100 μl for prednisolone and theophylline, 30 μl for warfarin) were applied to a Hypersil C18, 3 μm, 15 cm HPLC column (Thermo Scientific). Starting eluent consisted of 6.8 mM ammoniumformate (pH 3.9), followed by several steps of linear gradients to different concentrations of acetonitrile (ACN) (Biosolve, Valkenswaard, The Netherlands). […] Detection of prednisolone was performed at λabs=254 nm, theophylline at λabs=270 nm, warfarin at λexc=310 nm/λem=390 nm. Quantification was done by using calibration curves of prednisolone, theophylline, or warfarin.

AHR target gene CYP1A2 = conditions: 24 h, 40 μM
Experimental: (§1) RT-qPCR measurements were performed on a Lightcycler 480 (Roche) with Sensifast SYBR Green master mix (Bioline) according to manufacturer's instructions. […] Normalized mRNA levels are expressed as a percentage of the mean mRNA levels of two human liver samples normalized to 18S rRNA. The human liver samples were obtained from two female patients with liver adenoma and no elevated liver damage. […] The samples were taken after obtaining written informed consent and the procedure was approved by the Academic Medical Center's committee on human experimentation (protocol number 03/024).
Transcript levels of CYP genes were compared in cultures with and without induction.

HepaRG cells [2] = experiment: Mitochondrial content (mitochondrial to nuclear DNA ratio) after culture with DMSO; assay type: cell-based, human; conditions: vs cells not cultured in presence of DMSO
Excerpt: (§2) To assess the cellular mitochondrial content the inventors determined the mitochondrial/nuclear DNA ratio. Total DNA was isolated with the QIAamp DNA Mini Blood kit (QIAgen) according to manufacturer's instructions.
(§3) For a list of PCR-primers used, see supplementary table 1.

HepG2 cells [3] = experiment: as above; assay type: cell-based, human; conditions: HepG2-CAR cultured with DMSO vs HepG2-CAR without DMSO
Excerpt: as §2, §3

HepaRG cells [4] = experiment: Lactate production after culture with DMSO; assay type: cell-based, human
Experimental: The cultures were washed twice with PBS and then exposed to phenol-red free HepaRG culture medium with 1.5 mM ^15NH4Cl (Sigma), 2.27 mM D-galactose (Sigma), and 2 mM L-lactate (Sigma) without DMSO. Medium samples were taken after 45 min, 8 and 24 hours of incubation. Production or elimination rates were established by calculating the concentration changes of different compounds, as indicated below, in the test media in time, and were corrected for protein content per well.

HepaRG cells [5] = conditions: human, 14 days, 1.7 %
Experimental: For testing, the cells were fully matured during 28 days in 12- or 24-well culture plates. […] For testing the effect of CAR overexpression HepaRG and HepaRG-CAR cultures of similar passage (±1 passage) were compared, between passage 15-19.
(§4) Protein levels of cell cultures were assessed with the Bio-Rad Protein Assay (Bio-Rad, Hercules, Calif.) according to manufacturer's instructions after lysis in 0.2 M NaOH for 1 h at 37° C.

HepaRG monolayers = conditions: cited from earlier work
CAR mRNA = CAR mRNA levels after culture with DMSO; assay type: cell-based, human
Experimental: as §1

HepG2 cells [6] = conditions: human, 1.7 %
Experimental: HepG2 cells were maintained in T75 flasks until 80-90% confluency after which they were propagated in new flasks. The cells were propagated similarly as HepaRG cells. HepG2 cells were seeded at a 1:3-1:4 ratio in 12 or 24 well plates.
as §4

SMILES: Clc1ccc(-c2nc3sccn3c2/C=N/OCc2ccc(Cl)c(Cl)c2)cc1 [CITCO]
- fold induction of CYP2B6 transcript (CAR target gene CYP2B6; CITCO 1 μM, 24 h, control and modified HepaRG monolayers, independent of DMSO treatment): 4.2-6.1 ×
- fold induction of CYP2B6 transcript (CAR target gene CYP2B6; control HepaRG BALIAD culture without DMSO, CITCO 24 h): 6.5 ×
- fold induction of CYP2B6 transcript (CAR target gene CYP2B6; modified HepaRG BALIAD culture without DMSO, CITCO 24 h): 3.6 ×
- total CYP2B6 mRNA level after induction, of human liver (CAR target gene CYP2B6; modified HepaRG BALIAD, CITCO 24 h): ≤ 1023%
- total CYP2B6 transcript level after induction, of human liver (CAR target gene CYP2B6; modified HepaRG monolayer, CITCO 24 h): ≤ 430%

SMILES: C[C@]12C=CC(=O)C=C1CC[C@@H]1[C@@H]2[C@@H](O)C[C@@]2(C)[C@H]1CC[C@]2(O)C(=O)CO [prednisolone]
- clearance rate in HepaRG-CAR cultured with DMSO compared to all other conditions [1]: cleared at an increased rate

SMILES: CC(=O)CC(c1ccccc1)c1c(O)c2ccccc2oc1=O (centres unmarked) [warfarin]
- clearance rate in HepaRG-CAR cultured with DMSO compared to all other conditions [1]: cleared at an increased rate
- period of linear clearance ([1]; human, 1 μM): 24 to 48 h

SMILES: COc1ccc2[nH]c([S+]([O-])Cc3ncc(C)c(OC)c3C)nc2c1 (centres unmarked) [omeprazole]
- total CYP1A2 mRNA level after induction, of human liver (AHR target gene CYP1A2): ≤ 31%
- total CYP1A2 transcript level after induction, of human liver (AHR target gene CYP1A2): ≤ 23%

SMILES: Cn1c(=O)c2[nH]cnc2n(C)c1=O [theophylline, theophylline anhydrous]
- clearance [1]: could not reliably observe any clearance

SMILES: C[S+](C)[O-] [DMSO, dimethyl sulfoxide]
- increase of mitochondrial to nuclear DNA ratio (HepaRG cells [2]; HepaRG-CAR monolayer): 2 ×
- increase of mitochondrial to nuclear DNA ratio (HepaRG cells [2]; unmodified HepaRG monolayer): 1.8 ×
- increase of mitochondrial to nuclear DNA ratio (HepG2 cells [3]): 1.3 ×
- reduction of lactate production (HepaRG cells [4]; HepaRG-CAR monolayer cultured with DMSO vs control cells without DMSO): 92%
- reduction of lactate production (HepaRG cells [4]; control HepaRG monolayer cultured with DMSO vs control cells without DMSO): 57%
- reduction of protein content (HepaRG cells [5]): 40%
- reduction of total protein content (HepaRG cells [5]): 19%
- increase of cell leakage (HepaRG monolayers): 3- to 4 fold
- reduction of total cellular protein content (HepaRG monolayers): more than 50%
- CAR mRNA level, of human liver (CAR mRNA; control HepaRG cells cultured with DMSO (5.3% without)): 15%
- CAR mRNA level, of human liver (CAR mRNA; modified HepaRG cells cultured with DMSO (108% without)): 208%
- reduction of total protein content (HepG2 cells [6]): 15%-18
